Experimental data reported in patent US20190167568A1, “Transdermal Drug Delivery System and Method for Using Same” (SENJU USA, INC., priority 2016, published 2019).

Conditions: pH 8
From the text: In the present invention, the distribution coefficient (octanol/water distribution coefficient) may be adopted as the index of “water soluble” and “liposoluble” in the “water soluble steroid” and the “liposoluble steroid.” The distribution coefficient can be expressed in log D in consideration of the influence of pH, and water solubility is indicated by a minus value while liposolubility is indicated by a plus value.
The distribution coefficient can be obtained according to the method of JIS […] or JIS […].

Substance	distribution coefficient (log D)
dexamethasone metasulfobenzoate sodium	−2
prednisolone sodium phosphate	0
